Here are results for 1 molecule from patent publication US8852559B2 (Colgate-Palmolive Company, priority 2009, dated 2014).

The format of data set [1] is physicochemical. The text has this:
The poor solubility of Compound A presents some formulation challenges. Its solubility in water is less than 100 ppm, and its solubility in flavor oils (often used to solubilize actives) is less than 0.5%. We have discovered that co-polymers of polyethylene glycol and polypropylene glycol are able to solubilize Compound 1. Fluraflo L4370 (BASF) is able to solubilize 1% Compound 1 (% w/w). It is necessary to stir the solution over low heat to fully solubilize the active. The resulting solution is cloudy, reflecting the nature of the Fluraflo L4370 itself. The solution of 1% Compound 1 in Fluraflo L4370 is diluted 1:1 with 1.5% SLS in water to produce a clear solution, composed of 0.5% AN0128, 0.75% SLS, 50% Fluraflo L4370 in water Similar results are achieved using Fluracare L1220.
We also discovered that Tri-block Co-polymer Surfactant F127 is able to further enhance solubilization of Compound 1. In experimental liquid dentifrice formulas (Table 3), Compound 1 is not completely soluble over time, as evidenced by precipitation and crystallization over time. After the addition of 5% F127, experimental liquid dentifrice formulas (Table 4) remain clear. Therefore, Tri-block Co-polymer Surfactant F127 is able to further solubilize Compound 1 and is suitable for use in formulations.
We further discovered that low molecular weight polyethylene glycol 300 (PEG 300)(Dow Chemical Company) solubilizes 10% Compound 1 (% w/w). It is necessary to stir the solution over low heat to fully solubilize the active. The resulting solution is clear with a slight yellow tint due to the color of Compound 1. […] Therefore, we conclude that solvents containing oligomers and/or polymers of ethylene glycol are capable of solubilizing Compound 1 and are suitable for formulation.
The properties of Compound 1 in conjunction with other excipients are further evaluated by diluting a solution of Compound 1 in PEG 300 into other solvents such as propylene glycol and glycerin at varying ratios. A solution containing 1% Compound 1 in 19% PEG 300 and 80% propylene glycol is clear. […]

Data set [2] concerns biofilm. In words: Biofilm disruption assay. In kind it is cell-based. Here is the method: The solution of 0.5% AN0128.0.75% SLS. 50% Fluraflo L4370 in water is then tested in a biofilm disruption assay.
A solution of 2% Compound 1 in PEG 300 is diluted 1:1 with 2% SLS in water to produce a solution composed of 1% Compound 1, 1% SLS, 50% PEG 300 in water which is then tested in a biofilm disruption assay.
The properties of Compound 1 in conjunction with other excipients are further evaluated by diluting a solution of Compound 1 in PEG 300 into other solvents such as propylene glycol and glycerin at varying ratios. A solution containing 1% Compound 1 in 19% PEG 300 and 80% propylene glycol is clear. This solution is then diluted 1:1 with 1% SLS in water to produce a solution composed of 0.5% Compound 1, 0.5% SLS, 9.5% PEG 300 and 40% propylene glycol in water which is then tested in the biofilm disruption assay. The percent reduction achieved versus the negative control is 80%. […] Similar results are achieved with PEG and glycerin.

Data set [3] is described as follows: Decomposition of Compound 1 in buffered vs unbuffered pH 7.2 formulation. In kind it is physicochemical. The following applies: phosphate buffered vs unbuffered formulation, pH 7.2, over 14 days. The protocol:
Two pH 7.2 formulations of Compound 1 are prepared, one with phosphate buffer, one without, and the decomposition of Compound 1 is measured over 14 days. While measurable decomposition is seen in both formulations, the slope of the rate of decomposition Compound 1 in the buffered formulation is decreased by 3.3 fold compared to that of the unbuffered formulation.

A short description of data set [4]: Stability of Compound 1 formulations with and without antioxidants. In kind it is physicochemical. The text has this:
The stability of three formulations of Compound 1 are compared, the formulations being identical except that one is without any antioxidants, one contains α-tocopherol, and the third contains sodium ascorbylphosphate.

SMILES strings stand for the structures.

`Cc1ccc([B-]2(c3ccc(C)c(Cl)c3)OC(=O)c3ncccc3[OH+]2)cc1Cl` [Compound 1]: in data set [1], the “amount solubilized in Fluraflo L4370” value turned out to be 1 % w/w. Further, the “amount solubilized in polyethylene glycol 300” value in data set [1] turned out to be 10 % w/w. In data set [1], the “solubility in various oils” value is “less than 0.5%”. The “percent reduction versus the negative control” value in data set [2] (0.5% AN0128, 0.75% SLS, 50% Fluraflo L4370 in water) is given as 65%; in data set [2] (0.5% Compound 1, 0.5% SLS, 9.5% PEG 300 and 40% propylene glycol in water), 80%; in data set [2] (1% Compound 1, 1% SLS, 50% PEG 300 in water), 76%. In addition, the “decrease of slope of the rate of decomposition of Compound 1” value in data set [3] amounted to 3.3 fold. The decomposition in formulation entry in data set [4] (formulation containing sodium ascorbylphosphate vs without any antioxidants) is “significantly reduced”; in data set [4] (formulation containing α-tocopherol vs sodium ascorbylphosphate formulation), “even less”.
